{
  "source": "patent US20140004043A1",
  "about": "“CRYPTOPHANE DERIVATIVES AND METHODS OF USE THEREOF” (Georgetown Univeristy, priority 2010, published 2014)",
  "origin": "cited, not measured here",
  "settings": "cited from earlier work",
  "note": "Where two headings read alike, the source gives them in different places.",
  "data": [
    {"molecule": "COc1cc2c3cc1OCCOc1cc4c(cc1OC)Cc1cc5c(OC)cc1Cc1cc(c(OC)cc1C4)OCCOc1cc(c(cc1OC)C3)Cc1cc(OC)c(cc1C2)OCCO5", "note": "[A (or 222), (±)-cryptophane-A]", "values": [
      {"measurement": "Ka, association constant for xenon binding", "setting": "TCE-d2, 278 K (footnote d)", "result": "3300^d"},
      {"measurement": "binding constant Ka of the xenon complex", "setting": "organic solution, 278K", "result": 3900, "unit": "M⁻¹"}
    ]},
    {"molecule": "c1cc2c3cc1OCOc1ccc4c(c1)Cc1ccc5cc1Cc1ccc(cc1C4)OCOc1ccc(c(c1)Cc1ccc(cc1C2)OCO5)C3", "note": "(racemic) [Cryptophane 1, (±)-cryptophane-1,1,1]", "values": [
      {"measurement": "binding constant with xenon Ka", "setting": "293 K in 1,1,2,2-tetrachloroethane-d2 (TCE-d2)", "result": "~10,000 M^−1"},
      {"measurement": "Ka, association constant for xenon binding", "setting": "TCE-d2, 293 K", "result": 10000, "unit": "M⁻¹"}
    ]}
  ]
}
